{"source": "patent US20090022739A1", "about": "“MODULATING THE KV1.1 VOLTAGE-GATED POTASSIUM CHANNEL IN T-CELLS FOR REGULATING THE […] AND SECRETION OF TUMOR NECROSIS FACTOR ALPHA (tnf-ALPHA) AND TREATING HUMAN DISEASE OR INJURIES MEDIATED BY […] HIGH OR LOW LEVELS OF TNF-ALPHA” (priority 2005, published 2009)", "key": {"[1]": {"target": "T1, Kv1.3 (Homo sapiens, UniProt P22001)", "T1 construct": "host or cells: Xenopus laevis oocytes", "T1 sequence (P22001 whole entry)": "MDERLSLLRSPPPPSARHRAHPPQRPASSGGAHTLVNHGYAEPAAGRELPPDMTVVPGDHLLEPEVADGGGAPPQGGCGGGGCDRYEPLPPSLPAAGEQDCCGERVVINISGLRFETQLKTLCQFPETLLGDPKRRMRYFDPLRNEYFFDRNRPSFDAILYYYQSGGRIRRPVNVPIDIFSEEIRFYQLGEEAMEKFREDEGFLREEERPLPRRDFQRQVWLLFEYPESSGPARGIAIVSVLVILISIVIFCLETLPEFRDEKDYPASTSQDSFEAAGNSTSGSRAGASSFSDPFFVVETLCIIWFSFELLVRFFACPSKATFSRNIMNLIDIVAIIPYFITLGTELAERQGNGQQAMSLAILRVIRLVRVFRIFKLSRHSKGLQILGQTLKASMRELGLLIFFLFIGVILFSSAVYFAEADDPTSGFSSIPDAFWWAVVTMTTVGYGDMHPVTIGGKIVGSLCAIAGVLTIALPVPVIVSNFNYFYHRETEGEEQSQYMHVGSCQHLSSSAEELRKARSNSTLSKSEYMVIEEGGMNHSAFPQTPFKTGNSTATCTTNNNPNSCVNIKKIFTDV", "settings": "cited from earlier work"}, "[2]": {"target": "Kv1.2 (Homo sapiens, UniProt P16389)", "settings": "cited from earlier work"}, "[3]": {"target": "T2, Kv1.1 (Homo sapiens, UniProt Q09470)", "T2 sequence (Q09470 whole entry)": "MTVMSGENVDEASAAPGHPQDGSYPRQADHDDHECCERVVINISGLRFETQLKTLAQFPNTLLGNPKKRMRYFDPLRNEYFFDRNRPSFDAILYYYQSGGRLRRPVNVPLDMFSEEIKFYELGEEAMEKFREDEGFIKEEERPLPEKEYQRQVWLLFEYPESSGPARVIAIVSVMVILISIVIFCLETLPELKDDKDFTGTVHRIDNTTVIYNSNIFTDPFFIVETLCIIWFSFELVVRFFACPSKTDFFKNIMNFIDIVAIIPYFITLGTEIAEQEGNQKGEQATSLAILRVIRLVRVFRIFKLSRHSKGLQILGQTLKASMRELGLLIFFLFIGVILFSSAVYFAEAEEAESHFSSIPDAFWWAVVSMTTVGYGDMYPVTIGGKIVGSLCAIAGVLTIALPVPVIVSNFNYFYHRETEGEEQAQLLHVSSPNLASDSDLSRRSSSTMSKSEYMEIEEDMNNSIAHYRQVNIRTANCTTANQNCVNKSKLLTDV", "settings": "cited from earlier work"}, "[4]": {"target": "Kv1.1 voltage-gated potassium channel of normal human peripheral T-cells (human) (UniProt Q09470)", "sequence (Q09470 whole entry)": "as above", "assay": "cell-based or functional assay"}, "[5]": {"tested_on": "ion channels", "settings": "manufacturer's data sheets and/or the literature; cited from earlier work"}, "[6]": {"tested_on": "normal human T-cells", "assay_type": "cell-based", "settings": "for fold increase in TNFα secretion: FIG. 1A, DTX-K 100 nM, other blockers at highest concentration used; for effect on DTX-K-induced TNF-α secretion: 100 μM blocker added 5 min before 100 nM DTX-K, FIG. 2K", "method": "Human T-Cells: Normal human T-cells were purified from peripheral blood of healthy donors as described (Levite et al, 2000; Ganor et al, 2003; Levite t al, 1998), and the resulting cell population, containing ≧90% T-cells, was suspended in RPMI medium supplemented with 10% FCS, 1% L-Glutamine and antibiotics (Biological Industries, Bet Haemek, Israel) and maintained at 2×10^6 cells/ml (37° C./5% CO2).\nDetermination of TNF-α, IFN-γ, IL-10 and IL-4 by ELISA: Freshly-purified normal resting human T-cells (2×10^6/ml) were incubated in 24-well plates (Costar, Corning, N.Y.) and the various channel blockers were added. […] Cytokine levels were measured in supernatants after 24 hours for TNF-α and IFN-γ and after 72 hours for IL-10 and IL-4, by quantitative sandwich ELISA (R&D, Minneapolis, Minn.), according to the manufacturer's instructions. […]\nThese 12 blockers were selected on the basis of their reported ability to block most types of K^+, Na^+, Ca^2+ and Cl^− channels expressed in T-cells (Deutsch et al, 1986; Lewis et al, 1995; Lewis et al, 1988; Rader et al, 1996; Freedman et al, 1995; Koo et al, 1997; Lin et al, 1993; Ishida et al, 1993; Jensen et al, 1999; Kotturi et al, 2003; Phipps et al, 1996; Verheugen et al, 1997; Levite et al, 2000; Chandy et al, 1984). The levels of TNFα secreted into the culture media were tested 24 hours later by ELISA. For positive control, the cells were exposed to the potent phorbol ester PMA, know to activate T-cells in a non-specific manner. The results are shown in FIG. 1A and represent fold increase ±SD TNF-α secretion tested in 2-3 independent experiments. Each ion channel blocker was examined in at least two independent experiments, and at several concentrations covering its effective range (see Materials and Methods). The numbers in each figure next to each blocker represent the highest molar concentration used. Statistical analysis: *P=0.0001, 0.0005, 0.0011 and 0.0005 vs. untreated for MgTX, KTX, DTX-K and PMA, respectively (Student's t-test)."}, "[7]": {"target": "T2, Kv1.1", "settings": "Gutman et al, 2003; cited from earlier work"}, "[8]": {"tested_on": "Kv1.1, Kv1.2 and Kv1.3", "settings": "cited from earlier work"}, "[9]": {"target": "Shaker B K^+-channels (Drosophila melanogaster, UniProt P08510)", "sequence (P08510 whole entry)": "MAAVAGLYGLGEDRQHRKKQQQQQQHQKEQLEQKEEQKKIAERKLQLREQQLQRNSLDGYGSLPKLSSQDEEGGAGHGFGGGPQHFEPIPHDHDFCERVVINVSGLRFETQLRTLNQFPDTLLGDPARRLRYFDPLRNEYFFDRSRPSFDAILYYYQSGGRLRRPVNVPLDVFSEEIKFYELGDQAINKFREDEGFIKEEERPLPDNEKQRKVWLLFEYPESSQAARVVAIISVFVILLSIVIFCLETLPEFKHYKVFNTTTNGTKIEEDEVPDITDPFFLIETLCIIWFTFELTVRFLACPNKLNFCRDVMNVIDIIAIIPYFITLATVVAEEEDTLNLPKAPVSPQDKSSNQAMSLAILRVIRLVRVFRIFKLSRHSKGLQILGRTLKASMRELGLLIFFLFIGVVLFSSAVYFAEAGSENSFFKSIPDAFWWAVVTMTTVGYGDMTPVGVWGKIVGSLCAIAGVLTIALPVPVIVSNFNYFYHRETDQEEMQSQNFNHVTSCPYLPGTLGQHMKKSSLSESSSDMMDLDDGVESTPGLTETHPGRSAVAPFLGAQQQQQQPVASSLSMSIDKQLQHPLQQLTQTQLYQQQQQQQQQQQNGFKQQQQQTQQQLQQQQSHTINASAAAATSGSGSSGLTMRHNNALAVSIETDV", "settings": "at 100 nM concentration; cited from earlier work"}, "[10]": {"tested_on": "melanoma in-transit metastases", "settings": "ILP; cited from earlier work"}, "[11]": {"tested_on": "host ED1-positive cells in the liver", "settings": "administration of TNF-α into the brain; Campbell et al, 2005; cited from earlier work"}, "[12]": {"tested_on": "high-grade STS", "settings": "cited from earlier work"}, "[13]": {"tested_on": "cloned Kv1.1, Kv1.2 and Kv1.6 channels", "settings": "cited from earlier work"}, "[14]": {"settings": "24 hours, several effective concentrations, no other stimulus"}, "[15]": {"settings": "multicenter trials in Europe, ILP for STS"}}, "note": "Where two headings read alike, the source gives them in different places. No end group written: not given here.", "data": [{"compound": "maurotoxins: natural and synthetic maurotoxins, four disulfide bridges scorpion toxin (VSCTGSKDCYAPCRKQTGCPNAKCINKSCKCYGC; disulfide (positions not given here); also: four disulfide bridges, pairing not given here; UniProt P80719 1-34, looked up)", "values": [{"measurement": "IC50", "setting": "[1]; Xenopus oocytes, Rochat et al, 1998, read-out: half-effects (IC50), Kv1.3", "value": "~150", "unit": "nM"}, {"measurement": "IC50", "setting": "[2]; Xenopus oocytes, Rochat et al, 1998, read-out: half-effects (IC50), Kv1.2", "value": "~0.8", "unit": "nM"}, {"measurement": "IC50", "setting": "[3]; Xenopus oocytes, Rochat et al, 1998, read-out: half-effects (IC50), Kv1.1", "value": "~40", "unit": "nM"}]}, {"compound": "rMargatoxin (from UniProt P40755 1-39) (peptide)", "values": [{"measurement": "fold increase in TNFα secretion by human T-cells (ELISA, 24 h)", "setting": "[4]", "value": 6.5, "unit": "fold"}]}, {"compound": "Kaliotoxin (GVEINVKCSGSPQCLKPCKDAGMRFGKCMNRKCHCTPK) [KTX]", "values": [{"measurement": "Kd", "setting": "[1]; bath application to Xenopus laevis oocytes, Mourre et al, 1999, read-out: K(d), recombinant Kv1.3", "value": 0.1, "unit": "nM"}, {"measurement": "effective concentrations", "setting": "[5]", "value": "0.001 to 0.1", "unit": "µM"}, {"measurement": "fold increase in TNFα secretion", "setting": "[6]; 24 hours, no other stimulus", "value": 15.1, "unit": "fold increase"}, {"measurement": "Kd", "setting": "[2]; bath application to Xenopus laevis oocytes, Mourre et al, 1999, read-out: K(d), recombinant Kv1.2", "value": 25, "unit": "nM"}, {"measurement": "Ki", "setting": "[7]", "value": 20, "unit": "nM"}, {"measurement": "Kd", "setting": "[3]; bath application to Xenopus laevis oocytes, Mourre et al, 1999, read-out: K(d), recombinant Kv1.1", "value": 1.5, "unit": "nM"}]}, {"compound": "N#Cc1cc2[nH]c(=O)c(=O)[nH]c2cc1[N+](=O)[O-]", "note": "[CNQX]", "values": [{"measurement": "TNF-α up-regulation", "setting": "[6]; [14]", "value": "no significant TNF-α up-regulation"}]}, {"compound": "rMargatoxin (TIINVKCTSPKQCLPPCKAQFGQSAGAKCMNGKCKCYPH) [MgTX]", "values": [{"measurement": "fold increase in TNFα secretion", "setting": "[6]; 24 hours, no other stimulus", "value": 6.5, "unit": "fold increase"}]}, {"compound": "rHongotoxin-1: Centruroides limbatus toxin, blocks Kv1.1, Kv1.2 and Kv1.3 (TVIDVKCTSPKQCLPPCKAQFGIRAGAKCMNGKCKCYPH; ends and bridges not checked; cysteine pairing not given here; UniProt P59847 1-39, looked up)", "values": [{"measurement": "blocking concentration, Kv1.1, Kv1.2 and Kv1.3", "setting": "[8]", "value": "0.1 to 0.2", "unit": "pM"}]}, {"compound": "Nc1ccncc1", "note": "[4-AP, 4-Aminopyridine]", "values": [{"measurement": "TNF-α up-regulation", "setting": "[6]; [14]", "value": "no significant TNF-α up-regulation"}]}, {"compound": "CC[N+](CC)(CC)CC", "note": "[TEA, Tetraethylammonium]", "values": [{"measurement": "TNF-α up-regulation", "setting": "[6]", "value": "no significant TNF-α up-regulation"}]}, {"compound": "Kaliotoxin (from UniProt P24662 1-38) (peptide)", "values": [{"measurement": "fold increase in TNFα secretion by human T-cells (ELISA, 24 h)", "setting": "[4]", "value": 15.1, "unit": "fold"}]}, {"compound": "O=C(O)c1cc([N+](=O)[O-])ccc1NCCCc1ccccc1", "note": "[NPPB]", "values": [{"measurement": "effective concentrations", "setting": "[5]", "value": "100 to 200", "unit": "µM"}, {"measurement": "effect on DTX-K-induced TNF-α secretion", "setting": "[6]; 24 hours", "value": "no such interrupting effect"}, {"measurement": "TNF-α up-regulation", "setting": "[6]; [14]", "value": "no significant TNF-α up-regulation"}]}, {"compound": "COC(=O)C1=C(C)NC(C)=C([N+](=O)[O-])C1c1ccccc1C(F)(F)F", "note": "(stereo not drawn) [+Bay K, R-(+)-Bay K8644]", "values": [{"measurement": "effect on DTX-K-induced TNF-α secretion", "setting": "[6]; 24 hours", "value": "prevented completely"}, {"measurement": "TNF-α up-regulation", "setting": "[6]; [14]", "value": "no significant TNF-α up-regulation"}]}, {"compound": "Pi4: 38-amino acid long peptide from the venom of the scorpion Pandinus imperator (IEAIRCGGSRDCYRPCQKRTGCPNAKCINKTCKCYGCS; UniProt P58498 1-38, looked up)", "values": [{"measurement": "block of Shaker B K^+-channels", "setting": "[9]", "value": "blocks completely and reversibly"}]}, {"compound": "Clc1ccccc1C(c1ccccc1)(c1ccccc1)n1ccnc1", "note": "[CLT, Clotrimazole]", "values": [{"measurement": "TNF-α up-regulation", "setting": "[6]", "value": "no significant TNF-α up-regulation"}]}, {"compound": "CCCCCCCCCCCCCC(=O)O[C@@H]1[C@@H](C)[C@@]2(O)[C@@H](C=C(CO)C[C@]3(O)C(=O)C(C)=C[C@@H]23)[C@@H]2C(C)(C)[C@]12OC(C)=O", "note": "[PMA]", "values": [{"measurement": "fold increase in TNFα secretion", "setting": "[6]; 24 hours, no other stimulus", "value": 41.3, "unit": "fold increase"}]}, {"compound": "TNF-α", "values": [{"measurement": "complete response (CR) rate", "setting": "[10]", "value": "70%-90%"}, {"measurement": "overall response rate", "setting": "[10]", "value": "95%-100%"}, {"measurement": "increase in the number of host ED1-positive cells accumulated in the liver", "setting": "[11]", "value": "up to two fold increase"}, {"measurement": "major response rates, median", "setting": "[12]; largest single-center studies in STS, range 58%-91%", "value": 76, "unit": "%"}, {"measurement": "median limb salvage rate", "setting": "[12]; largest single-center studies in STS, range 58%-97%", "value": 84, "unit": "%"}, {"measurement": "median limb salvage rate", "setting": "[12]; [15]", "value": 82, "unit": "%"}, {"measurement": "overall response rate", "setting": "[12]; [15]", "value": 76, "unit": "%"}]}, {"compound": "rCharybdotoxin [CTX]", "values": [{"measurement": "TNF-α up-regulation", "setting": "[6]; [14]", "value": "no significant TNF-α up-regulation"}]}, {"compound": "C=C[C@H]1C[N@@]2CC[C@H]1C[C@H]2[C@H](O)c1ccnc2ccc(OC)cc12", "note": "[Quinine]", "values": [{"measurement": "effective concentrations", "setting": "[5]", "value": "1 to 10", "unit": "µM"}, {"measurement": "TNF-α up-regulation", "setting": "[6]; [14]", "value": "no significant TNF-α up-regulation"}]}, {"compound": "Alpha-dendrotoxin", "values": [{"measurement": "concentration range blocking cloned Kv1.1, Kv1.2 and Kv1.6 channels", "setting": "[13]", "value": "low nanomolar range"}]}, {"compound": "N[C@@H](Cc1ccc(N(CCCl)CCCl)cc1)C(=O)O", "note": "[melphalan]", "values": [{"measurement": "complete response (CR) rate", "setting": "[10]", "value": "~50", "unit": "%"}, {"measurement": "overall response rate", "setting": "[10]", "value": 80, "unit": "%"}]}, {"compound": "NC1=N[C@H](O)[C@H]2[C@H]3O[C@]4(O)O[C@@H]([C@@H](O)[C@@]2(N1)[C@@H]4O)[C@]3(O)CO", "note": "[TTX, Tetrodotoxin]", "values": [{"measurement": "TNF-α up-regulation", "setting": "[6]", "value": "no significant TNF-α up-regulation"}]}]}
